Laboratory results from patent US20250171432A1, “COMPOUNDS AND METHODS OF USE” (Tango Therapeutics, Inc., priority 2022, published 2025).

Legend:
Assay type in all cases: cell-based
[1] = tested on: HAP1 MTAP-deleted cell line; experiment: Viability assay (CellTiter-Glo), HAP1 MTAP-deleted; details: Homo sapiens, 168 h, HAP1 MTAP-deleted cells, 7 days
Procedure, shortened: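 HAP1 MTAP-deleted and MTAP-intact cells seeded, then dosed next day (n=3, 0.2% DMSO) and grown 7 days. Viability by CellTiter-Glo luminescence, expressed as % of DMSO control per cell line.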

[2] = tested on: SDMA (PRMT5 activity) in HAP1 MTAP-intact cell line; experiment: SDMA in-cell western assay, HAP1 MTAP-intact; details: Homo sapiens, SDMA in-cell western, HAP1 MTAP-intact cells, 24 hours compound incubation
[3] = tested on: SDMA (PRMT5 activity) in HAP1 MTAP-deleted cell line; experiment: SDMA in-cell western assay, HAP1 MTAP-deleted; details: for IC50 / IC90: Homo sapiens, SDMA in-cell western, HAP1 MTAP-deleted cells, 24 hours compound incubation; for Hap1 MTAP intact/deleted ratio: ratio of SDMA IC50 in HAP1 MTAP-intact to HAP1 MTAP-deleted cell line

IC50 ([2]; HAP1, 24 h) [nM] | IC50 [3] [nM] | IC90 [3] [nM] | Compound | IC50 [1] [nM] | Hap1 MTAP intact/deleted ratio [3] | IC50 [2] [nM]
> 50 | < 5 | < 75 | COc1ncc(NC(=O)C(=O)N2C[C@@H](C)CC[C@@H]2c2ccc3ccc(C4CCN(C)CC4)nc3c2)cc1C(N)=O [Compound 88, 2-methoxy-5-(2-((2R,5S)-5-methyl-2-(2-(1-methylpiperidin-4-yl)quinolin-7-yl)piperidin-1-yl)-2-oxoacetamido)nicotinamide] | < 100 | A (“A” indicates an IC50 ratio greater than or equal to 30 fold) | –
> 50 | 5 to 50 | 75 to 125 | COc1ncc(NC(=O)C(=O)N2C[C@@H](C)CC[C@@H]2c2ccc3sc(C4CCNCC4)nc3c2)cc1C(N)=O [Compound 52, 2-methoxy-5-(2-((2R,5S)-5-methyl-2-(2-(piperidin-4-yl)benzo[d]thiazol-5-yl)piperidin-1-yl)-2-oxoacetamido)nicotinamide] | 100 to 1000 | B (“B” indicates an IC50 ratio greater than or equal to 15 fold but lower than 30 fold) | –
> 50 | < 5 | < 75 | CCc1cc(NC(=O)C(=O)N2C[C@@H](C)CC[C@@H]2c2ccc3cn([C@H]4CCN(C)C[C@H]4C)nc3c2)cnc1N [Compound 42] | < 100 | B (“B” indicates an IC50 ratio greater than or equal to 15 fold but lower than 30 fold) | –
> 50 | < 5 | < 75 | COc1ncc(NC(=O)C(=O)N2C[C@@H](C)CC[C@@H]2c2ccc3sc([C@@H]4CN(C)C(C)(C)C4)nc3c2)cc1C(N)=O (single isomer, unassigned) [Compound 30] | < 100 | B (“B” indicates an IC50 ratio greater than or equal to 15 fold but lower than 30 fold) | –
> 50 | < 5 | < 75 | COc1ncc(NC(=O)C(=O)N2C[C@@H](C)CC[C@@H]2c2ccc3sc([C@@H]4C[C@@H]5CN(C)C[C@@H]5C4)nc3c2)cc1C(N)=O (single isomer, unassigned) [Compound 82] | < 100 | A (“A” indicates an IC50 ratio greater than or equal to 30 fold) | –
> 50 | < 5 | < 75 | CCc1cc(NC(=O)C(=O)N2C[C@@H](C)CC[C@@H]2c2ccc3cc(C#N)c(C4CCN(C)CC4)nc3c2)cnc1N [Compound 63, N-(6-amino-5-ethylpyridin-3-yl)-2-((2R,5S)-2-(3-cyano-2-(1-methylpiperidin-4-yl)quinolin-7-yl)-5-methylpiperidin-1-yl)-2-oxoacetamide] | < 100 | A (“A” indicates an IC50 ratio greater than or equal to 30 fold) | –
> 50 | < 5 | < 75 | COc1ncc(NC(=O)C(=O)N2C[C@@H](C)CC[C@@H]2c2ccc3sc([C@H]4CCN(C)C[C@@H]4OC)nc3c2)cc1C(N)=O (single isomer, unassigned) [Compound 35] | < 100 | A (“A” indicates an IC50 ratio greater than or equal to 30 fold) | –
> 50 | < 5 | < 75 | CCc1cc(NC(=O)C(=O)N2C[C@@H](C)CC[C@@H]2c2ccc3sc([C@H]4C[C@@H](N(C)C)C4)nc3c2)cnc1N [Compound 40, N-(6-amino-5-ethyl-3-pyridyl)-2-oxo-2-[(2R,5S)-2-[2-[3-(dimethylamino)cyclobutyl]-1,3-benzothiazol-5-yl]-5-methyl-1-piperidyl]acetamide] | < 100 | A (“A” indicates an IC50 ratio greater than or equal to 30 fold) | –
> 50 | < 5 | < 75 | COc1ncc(NC(=O)C(=O)N2C[C@@H](C)CC[C@@H]2c2ccc3cc(C#N)c(C4CCN(C)CC4)nc3c2)cc1C(N)=O [Compound 113, 5-(2-((2R,5S)-2-(3-cyano-2-(1-methylpiperidin-4-yl)quinolin-7-yl)-5-methylpiperidin-1-yl)-2-oxoacetamido)-2-methoxynicotinamide] | < 100 | A (“A” indicates an IC50 ratio greater than or equal to 30 fold) | –
5 to 50 | < 5 | < 75 | CCc1cc(NC(=O)C(=O)N2C[C@@H](C)CC[C@@H]2c2ccc3sc([C@H]4CN(C)CC(C)(C)C4)nc3c2)cnc1N (single isomer, unassigned) [Compound 45] | < 100 | B (“B” indicates an IC50 ratio greater than or equal to 15 fold but lower than 30 fold) | –
> 50 | 5 to 50 | 75 to 125 | COc1ncc(NC(=O)C(=O)N2C[C@@H](C)CC[C@@H]2c2ccc3sc([C@H](C)N(C)C)nc3c2)cc1C(N)=O [Compound 96, 2-methoxy-5-[[2-oxo-2-[(2R,5S)-5-methyl-2-[2-[(1S)-1-(dimethylamino)ethyl]-1,3-benzothiazol-5-yl]-1-piperidyl]acetyl]amino]pyridine-3-carboxamide] | < 100 | A (“A” indicates an IC50 ratio greater than or equal to 30 fold) | –
5 to 50 | < 5 | < 75 | CCc1cc(NC(=O)C(=O)N2C[C@@H](C)CC[C@@H]2c2ccc3cn([C@@H]4CCN(C)C4)nc3c2)cnc1N [Compound 112, N-(6-amino-5-ethylpyridin-3-yl)-2-((2R,5S)-5-methyl-2-(2-((R)-1-methylpyrrolidin-3-yl)-2H-indazol-6-yl)piperidin-1-yl)-2-oxoacetamide] | < 100 | B (“B” indicates an IC50 ratio greater than or equal to 15 fold but lower than 30 fold) | –
> 50 | < 5 | < 75 | COc1ncc(NC(=O)C(=O)N2C[C@@H](C)CC[C@@H]2c2ccc3sc([C@@H]4C[C@@H](C)CN(C)C4)nc3c2)cc1C(N)=O (racemic) [Compound 94, 5-(2-((2R,5S)-2-(2-(1,5-dimethylpiperidin-3-yl)benzo[d]thiazol-5-yl)-5-methylpiperidin-1-yl)-2-oxoacetamido)-2-methoxynicotinamide] | < 100 | A (“A” indicates an IC50 ratio greater than or equal to 30 fold) | –
> 50 | 5 to 50 | > 125 | COc1ncc(NC(=O)C(=O)N2C[C@@H](C)CC[C@@H]2c2ccc3sc([C@H]4CN(C)CCO4)nc3c2)cc1C(N)=O [Compound 124] | 100 to 1000 | A (“A” indicates an IC50 ratio greater than or equal to 30 fold) | –
5 to 50 | < 5 | < 75 | C[C@H]1CC[C@H](c2ccc3sc(C4CCN(C)C(C)(C)C4)nc3c2)N(C(=O)C(=O)Nc2cnc(N)c(C3COC3)c2)C1 (single isomer, unassigned) [Compound 34] | < 100 | C (“C” indicates an IC50 ratio of less than 15 fold) | –
> 50 | 5 to 50 | < 75 | CCc1cc(NC(=O)C(=O)N2C[C@@H](C)CC[C@@H]2c2ccc3cn([C@H]4CCN(C)C4)nc3c2)cnc1N [Compound 117, N-(6-amino-5-ethylpyridin-3-yl)-2-((2R,5S)-5-methyl-2-(2-((S)-1-methylpyrrolidin-3-yl)-2H-indazol-6-yl)piperidin-1-yl)-2-oxoacetamide] | < 100 | C (“C” indicates an IC50 ratio of less than 15 fold) | –

Compound | IC50 ([2]; HAP1, 24 h) [nM] | IC50 [3] [nM] | IC90 [3] [nM] | IC50 [1] [nM] | Hap1 MTAP intact/deleted ratio [3] | IC50 [2] [nM]
CCc1cc(NC(=O)C(=O)N2C[C@@H](C)CC[C@@H]2c2ccc3oc(C4CCN(C)CC4)nc3c2)cnc1N [Compound 53, N-(6-amino-5-ethylpyridin-3-yl)-2-((2R,5S)-5-methyl-2-(2-(1-methylpiperidin-4-yl)benzo[d]oxazol-5-yl)piperidin-1-yl)-2-oxoacetamide] | – | < 5 | < 75 | < 100 | A (“A” indicates an IC50 ratio greater than or equal to 30 fold) | > 50
